According to ChEMBL document CHEMBL5370683, “Peptide-to-Small Molecule: Discovery of Non-Covalent, Active-Site Inhibitors of β-Herpesvirus Proteases” (ACS Med Chem Lett, 2023):
Peptide text beside a SMILES is read from it.

Key:
[1] = Inhibition of amino terminal GST tagged HCMV protease (1 to 256 residues) expressed in Escherichia coli BL21 (DE3) cells using 5-carboxyfluorescein [FAM]-RGVVNASSRLAK as peptide substrate incubated for 3 hrs by fluorescence based analysis; design: species or system Human betaherpesvirus 5
[2] = Inhibition of N-terminal 6 His-tagged HHV6 protease (2 to 230 residues) expressed in Escherichia coli BL21 cells using 5FAM-KPSILNASLTPETVKK as peptide substrate incubated for 3 hrs by fluorescence based analysis; design: species or system Human betaherpesvirus 6
Human betaherpesvirus 5 [3] = assay: Antiviral activity against HCMV infected in HFF cells assessed as reduction in viral replication; assay type: functional, organism-based; conditions: Human betaherpesvirus 5, HFF
[4] = Cytotoxicity against HFF cells assessed as inhibition in cell viability incubated for 5 days by luminescence based analysis; assay type: toxicity; conditions: human, time 5 day
Human betaherpesvirus 5 [5] = assay: Inhibition of amino terminal GST tagged HCMV protease (1 to 256 residues) expressed in Escherichia coli BL21 (DE3) cells using 5-carboxyfluorescein [FAM]-RGVVNASSRLAK as peptide substrate at 99 uM incubated for 3 hrs by fluorescence based analysis relative to control
Human betaherpesvirus 6 = assay: Inhibition of N-terminal 6 His-tagged HHV6 protease (2 to 230 residues) expressed in Escherichia coli BL21 cells using 5FAM-KPSILNASLTPETVKK as peptide substrate at 99 uM incubated for 3 hrs by fluorescence based analysis relative to control
[6] = Inhibition of amino terminal GST tagged HCMV protease F1A mutant (1 to 256 residues) expressed in Escherichia coli BL21 (DE3) cells using 5-carboxyfluorescein [FAM]-RGVVNASSRLAK as peptide substrate incubated for 3 hrs by fluorescence based analysis; design: species or system Human betaherpesvirus 5
[7] = Inhibition of N-terminal 6 His-tagged HHV6 protease F1A mutant (2 to 230 residues) expressed in Escherichia coli BL21 cells using 5FAM-KPSILNASLTPETVKK as peptide substrate incubated for 3 hrs by fluorescence based analysis; design: species or system Human betaherpesvirus 6
[8] = Inhibition of amino terminal GST tagged HCMV protease I2A mutant (1 to 256 residues) expressed in Escherichia coli BL21 (DE3) cells using 5-carboxyfluorescein [FAM]-RGVVNASSRLAK as peptide substrate incubated for 3 hrs by fluorescence based analysis; design: species or system Human betaherpesvirus 5
[9] = Inhibition of N-terminal 6 His-tagged HHV6 protease […] mutant (2 to 230 residues) expressed in Escherichia coli BL21 cells using 5FAM-KPSILNASLTPETVKK as peptide substrate incubated for 3 hrs by fluorescence based analysis; design: species or system Human betaherpesvirus 6
[10] = Inhibition of amino terminal GST tagged HCMV protease T3A mutant (1 to 256 residues) expressed in Escherichia coli BL21 (DE3) cells using 5-carboxyfluorescein [FAM]-RGVVNASSRLAK as peptide substrate incubated for 3 hrs by fluorescence based analysis; design: species or system Human betaherpesvirus 5
[11] = Inhibition of N-terminal 6 His-tagged HHV6 protease T3A mutant (2 to 230 residues) expressed in Escherichia coli BL21 cells using 5FAM-KPSILNASLTPETVKK as peptide substrate incubated for 3 hrs by fluorescence based analysis; design: species or system Human betaherpesvirus 6
[12] = Inhibition of amino terminal GST tagged HCMV protease H5A mutant (1 to 256 residues) expressed in Escherichia coli BL21 (DE3) cells using 5-carboxyfluorescein [FAM]-RGVVNASSRLAK as peptide substrate incubated for 3 hrs by fluorescence based analysis; design: species or system Human betaherpesvirus 5
[13] = Inhibition of N-terminal 6 His-tagged HHV6 protease H5A mutant (2 to 230 residues) expressed in Escherichia coli BL21 cells using 5FAM-KPSILNASLTPETVKK as peptide substrate incubated for 3 hrs by fluorescence based analysis; design: species or system Human betaherpesvirus 6
[14] = Inhibition of amino terminal GST tagged HCMV protease Y6A mutant (1 to 256 residues) expressed in Escherichia coli BL21 (DE3) cells using 5-carboxyfluorescein [FAM]-RGVVNASSRLAK as peptide substrate incubated for 3 hrs by fluorescence based analysis; design: species or system Human betaherpesvirus 5
[15] = Inhibition of N-terminal 6 His-tagged HHV6 protease Y6A mutant (2 to 230 residues) expressed in Escherichia coli BL21 cells using 5FAM-KPSILNASLTPETVKK as peptide substrate incubated for 3 hrs by fluorescence based analysis; design: species or system Human betaherpesvirus 6
[16] = Inhibition of amino terminal GST tagged HCMV protease W7A mutant (1 to 256 residues) expressed in Escherichia coli BL21 (DE3) cells using 5-carboxyfluorescein [FAM]-RGVVNASSRLAK as peptide substrate incubated for 3 hrs by fluorescence based analysis; design: species or system Human betaherpesvirus 5
[17] = Inhibition of N-terminal 6 His-tagged HHV6 protease W7A mutant (2 to 230 residues) expressed in Escherichia coli BL21 cells using 5FAM-KPSILNASLTPETVKK as peptide substrate incubated for 3 hrs by fluorescence based analysis; design: species or system Human betaherpesvirus 6
[18] = Inhibition of amino terminal GST tagged HCMV protease V8A mutant (1 to 256 residues) expressed in Escherichia coli BL21 (DE3) cells using 5-carboxyfluorescein [FAM]-RGVVNASSRLAK as peptide substrate incubated for 3 hrs by fluorescence based analysis; design: species or system Human betaherpesvirus 5
[19] = Inhibition of N-terminal 6 His-tagged HHV6 protease V8A mutant (2 to 230 residues) expressed in Escherichia coli BL21 cells using 5FAM-KPSILNASLTPETVKK as peptide substrate incubated for 3 hrs by fluorescence based analysis; design: species or system Human betaherpesvirus 6

CN1C(=O)N(c2cccn([C@@H](c3ccccc3)c3cn(C4CCCC4)nc3-c3ccccc3)c2=O)C[C@@H]1C(=O)NC12CCC(CC1)NC2=O
IC50 [1]: 9.8 µM | IC50 [2]: 11 µM | EC50 (Human betaherpesvirus 5 [3]): > 25 µM | CC50 at 120 h [4]: > 25 µM

CN1C(=O)N(c2cccn([C@@H](c3ccccc3)c3cn(C4CCCC4)nc3-c3ccccc3)c2=O)C[C@@H]1C(=O)Nc1ccc[nH]c1=O
IC50 [1]: > 99 µM | IC50 [2]: 18 µM | inhibition (Human betaherpesvirus 5 [5]): 32% | EC50 (Human betaherpesvirus 5 [3]): 38 µM | CC50 at 120 h [4]: 53 µM

CN1C(=O)N(c2cccn([C@H](c3ccccc3)c3cn(C4CCCC4)nc3-c3ccccc3)c2=O)C[C@@H]1C(=O)Nc1ccc[nH]c1=O
IC50 [1]: > 99 µM | IC50 [2]: > 99 µM | inhibition (Human betaherpesvirus 5 [5]): 2% | inhibition (Human betaherpesvirus 6): 12% | EC50 (Human betaherpesvirus 5 [3]): 90 µM | CC50 at 120 h [4]: 89 µM

Cc1ccc([C@H](c2cn(C3CCCC3)nc2-c2ccccc2C)n2cccc(N3C[C@H](C(=O)NC45CCC(CC4)NC5=O)N(C)C3=O)c2=O)cc1
IC50 [1]: > 99 µM | IC50 [2]: 50 µM | inhibition (Human betaherpesvirus 5 [5]): 39%

CC[C@H](C)[C@H](NC(=O)[C@H](C)NC(C)=O)C(=O)N[C@H](C(=O)NCC(=O)N[C@@H](Cc1c[nH]cn1)C(=O)N[C@@H](Cc1ccc(O)cc1)C(=O)N[C@@H](Cc1c[nH]c2ccccc12)C(=O)N[C@H](C(=O)N[C@@H](CCCNC(=N)N)C(=O)N[C@@H](Cc1ccccc1)C(=O)N[C@@H](CC(C)C)C(=O)N1CCC[C@H]1C(=O)N[C@@H](CS)C(=O)NCC(N)=O)C(C)C)[C@@H](C)O (Ac-AITGHYWVRFLPCG-NH2)
IC50 [6]: 0.079 µM | IC50 [7]: 0.14 µM

CC(=O)N[C@@H](Cc1ccccc1)C(=O)N[C@@H](C)C(=O)N[C@H](C(=O)NCC(=O)N[C@@H](Cc1c[nH]cn1)C(=O)N[C@@H](Cc1ccc(O)cc1)C(=O)N[C@@H](Cc1c[nH]c2ccccc12)C(=O)N[C@H](C(=O)N[C@@H](CCCNC(=N)N)C(=O)N[C@@H](Cc1ccccc1)C(=O)N[C@@H](CC(C)C)C(=O)N1CCC[C@H]1C(=O)N[C@@H](CS)C(=O)NCC(N)=O)C(C)C)[C@@H](C)O (Ac-FATGHYWVRFLPCG-NH2)
IC50 [8]: 0.184 µM | IC50 [9]: < 0.076 µM

CC[C@H](C)[C@H](NC(=O)[C@H](Cc1ccccc1)NC(C)=O)C(=O)N[C@@H](C)C(=O)NCC(=O)N[C@@H](Cc1c[nH]cn1)C(=O)N[C@@H](Cc1ccc(O)cc1)C(=O)N[C@@H](Cc1c[nH]c2ccccc12)C(=O)N[C@H](C(=O)N[C@@H](CCCNC(=N)N)C(=O)N[C@@H](Cc1ccccc1)C(=O)N[C@@H](CC(C)C)C(=O)N1CCC[C@H]1C(=O)N[C@@H](CS)C(=O)NCC(N)=O)C(C)C (Ac-FIAGHYWVRFLPCG-NH2)
IC50 [10]: 0.157 µM | IC50 [11]: 0.1 µM

CC[C@H](C)[C@H](NC(=O)[C@H](Cc1ccccc1)NC(C)=O)C(=O)N[C@H](C(=O)NCC(=O)N[C@@H](C)C(=O)N[C@@H](Cc1ccc(O)cc1)C(=O)N[C@@H](Cc1c[nH]c2ccccc12)C(=O)N[C@H](C(=O)N[C@@H](CCCNC(=N)N)C(=O)N[C@@H](Cc1ccccc1)C(=O)N[C@@H](CC(C)C)C(=O)N1CCC[C@H]1C(=O)N[C@@H](CS)C(=O)NCC(N)=O)C(C)C)[C@@H](C)O (Ac-FITGAYWVRFLPCG-NH2)
IC50 [12]: 0.109 µM | IC50 [13]: 0.086 µM

CC[C@H](C)[C@H](NC(=O)[C@H](Cc1ccccc1)NC(C)=O)C(=O)N[C@H](C(=O)NCC(=O)N[C@@H](Cc1c[nH]cn1)C(=O)N[C@@H](C)C(=O)N[C@@H](Cc1c[nH]c2ccccc12)C(=O)N[C@H](C(=O)N[C@@H](CCCNC(=N)N)C(=O)N[C@@H](Cc1ccccc1)C(=O)N[C@@H](CC(C)C)C(=O)N1CCC[C@H]1C(=O)N[C@@H](CS)C(=O)NCC(N)=O)C(C)C)[C@@H](C)O (Ac-FITGHAWVRFLPCG-NH2)
IC50 [14]: 0.689 µM | IC50 [15]: 0.085 µM

CC[C@H](C)[C@H](NC(=O)[C@H](Cc1ccccc1)NC(C)=O)C(=O)N[C@H](C(=O)NCC(=O)N[C@@H](Cc1c[nH]cn1)C(=O)N[C@@H](Cc1ccc(O)cc1)C(=O)N[C@@H](C)C(=O)N[C@H](C(=O)N[C@@H](CCCNC(=N)N)C(=O)N[C@@H](Cc1ccccc1)C(=O)N[C@@H](CC(C)C)C(=O)N1CCC[C@H]1C(=O)N[C@@H](CS)C(=O)NCC(N)=O)C(C)C)[C@@H](C)O (Ac-FITGHYAVRFLPCG-NH2)
IC50 [16]: 0.811 µM | IC50 [17]: 0.25 µM

CC[C@H](C)[C@H](NC(=O)[C@H](Cc1ccccc1)NC(C)=O)C(=O)N[C@H](C(=O)NCC(=O)N[C@@H](Cc1c[nH]cn1)C(=O)N[C@@H](Cc1ccc(O)cc1)C(=O)N[C@@H](Cc1c[nH]c2ccccc12)C(=O)N[C@@H](C)C(=O)N[C@@H](CCCNC(=N)N)C(=O)N[C@@H](Cc1ccccc1)C(=O)N[C@@H](CC(C)C)C(=O)N1CCC[C@H]1C(=O)N[C@@H](CS)C(=O)NCC(N)=O)[C@@H](C)O (Ac-FITGHYWARFLPCG-NH2)
IC50 [18]: 0.096 µM | IC50 [19]: < 0.076 µM

CC[C@H](C)[C@H](NC(=O)[C@H](Cc1ccccc1)NC(C)=O)C(=O)N[C@H](C(=O)NCC(=O)N[C@@H](Cc1c[nH]cn1)C(=O)N[C@@H](Cc1ccc(O)cc1)C(=O)N[C@@H](Cc1c[nH]c2ccccc12)C(=O)N[C@H](C(=O)N[C@@H](CCCNC(=N)N)C(=O)N[C@@H](Cc1ccccc1)C(=O)N[C@@H](CC(C)C)C(=O)N1CCC[C@H]1C(=O)N[C@@H](CS)C(=O)NCC(N)=O)C(C)C)[C@@H](C)O (Ac-FITGHYWVRFLPCG-NH2)
IC50 [1]: < 0.076 µM | IC50 [2]: < 0.076 µM

CC[C@H](C)[C@H](NC(C)=O)C(=O)N[C@H](C(=O)NCC(=O)N[C@@H](Cc1c[nH]cn1)C(=O)N[C@@H](Cc1ccc(O)cc1)C(=O)N[C@@H](Cc1c[nH]c2ccccc12)C(N)=O)[C@@H](C)O (Ac-ITGHYW-NH2)
IC50 [1]: > 99 µM | IC50 [2]: > 99 µM | inhibition (Human betaherpesvirus 5 [5]): 2% | inhibition (Human betaherpesvirus 6): 21%

Cc1cccc(C(c2cn(C3CCCC3)nc2-c2ccccc2)n2cccc(N3C[C@H](C(=O)NC45CCC(CC4)NC5=O)N(C)C3=O)c2=O)c1 (mixture of isomers)
IC50 [1]: 15 µM | IC50 [2]: 27 µM

Cc1ccc(C(c2cn(C3CCCC3)nc2-c2ccccc2)n2cccc(N3C[C@H](C(=O)NC45CCC(CC4)NC5=O)N(C)C3=O)c2=O)cc1 (mixture of isomers)
IC50 [1]: 13 µM | IC50 [2]: 5 µM

Cc1ccccc1C(c1cn(C2CCCC2)nc1-c1ccccc1)n1cccc(N2C[C@H](C(=O)NC34CCC(CC3)NC4=O)N(C)C2=O)c1=O (mixture of isomers)
IC50 [1]: 30 µM | IC50 [2]: 24 µM
